From PubChem BioAssay (NCI) come the findings set out here.

Molecules are shown by their SMILES. Where “and” joins values, the source holds several entries; their conditions need not be identical. Equal entries are not always repeated.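 These data come from cells grown in 96-well plates and exposed to compound for 48 hours at five concentrations. Here, GI50 denotes the concentration required for 50% inhibition of growth. At the TGI there is no net growth.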

Test systems include HL-60(TB) leukemia; HCC-2998 colon; IGROV1 ovarian; MDA-MB-231 breast; SK-MEL-2 melanoma; SK-MEL-28 melanoma; NCI/ADR-RES ovarian; DU-145 prostate; OVCAR-5 ovarian; UACC-62 melanoma; A549 NSCLC.
Holding throughout (experiment): DTP human tumour cell line panel, 48 h

With `O=C1CC(c2ccccc2)C2(C(=O)NC(=S)NC2=O)C(c2ccccc2)C1` (centres undefined), the TGI in the assay with HL-60(TB) leukemia, in the assay with HCC-2998 colon, in the assay on IGROV1 ovarian, with MDA-MB-231 breast, with SK-MEL-2 melanoma and with SK-MEL-28 melanoma was more than 75 µM throughout. Also, the TGI in the assay with NCI/ADR-RES ovarian, in the assay on DU-145 prostate, with OVCAR-5 ovarian and in the assay with UACC-62 melanoma was more than 75 µM throughout.
In the case of `COc1ccc(C2OC(=O)c3ccc4ccccc4c32)c(C)c1` (centres undefined), the TGI is more than 24.6 µM in the assay on HL-60(TB) leukemia; 12.3 µM in the assay with HCC-2998 colon; more than 100 µM in the assay on A549 NSCLC; more than 67.8 µM in the assay with IGROV1 ovarian; more than 100 µM in the assay on MDA-MB-231 breast; 18.4 µM in the assay with SK-MEL-2 melanoma. The TGI with SK-MEL-28 melanoma is more than 71.3 µM; in the assay on NCI/ADR-RES ovarian, 5.61 µM; in the assay on DU-145 prostate it was more than 100 µM; in the assay with OVCAR-5 ovarian it was more than 100 µM; in the assay with UACC-62 melanoma, more than 100 µM.
For `C=C(C(=O)O)[C@@H]1C[C@@H]2O[C@H]1[C@@H](O)[C@@H](C)CCCC(C)=CCC[C@@]2(C)O`, the GI50 in the assay with HL-60(TB) leukemia was 10.5 µM and 32.5 µM. Moreover, the TGI in the assay with HL-60(TB) leukemia, with HCC-2998 colon, in the assay with A549 NSCLC, with IGROV1 ovarian, in the assay on MDA-MB-231 breast and with SK-MEL-2 melanoma was more than 100 µM throughout. For the same molecule, the TGI in the assay with SK-MEL-28 melanoma, in the assay with NCI/ADR-RES ovarian, in the assay on DU-145 prostate, in the assay on OVCAR-5 ovarian and in the assay on UACC-62 melanoma was more than 100 µM throughout.
As for `Cc1ccc(/C=N/n2c(-c3ccc(C)cc3)n[nH]c2=O)cc1`, the TGI in the assay with HL-60(TB) leukemia, with HCC-2998 colon, in the assay on A549 NSCLC, with IGROV1 ovarian, in the assay with MDA-MB-231 breast and in the assay on SK-MEL-2 melanoma was more than 100 µM each time. Also, the TGI in the assay on SK-MEL-28 melanoma, in the assay with NCI/ADR-RES ovarian, in the assay on DU-145 prostate, in the assay with OVCAR-5 ovarian and in the assay on UACC-62 melanoma was more than 100 µM each time.
For `c1cc2c(s1)-c1sccc1C21OCCO1`, the TGI in the assay on HL-60(TB) leukemia, in the assay on HCC-2998 colon, in the assay with A549 NSCLC, in the assay on MDA-MB-231 breast, with SK-MEL-2 melanoma and with SK-MEL-28 melanoma was more than 100 µM throughout. The TGI in the assay on NCI/ADR-RES ovarian, in the assay with DU-145 prostate, in the assay with OVCAR-5 ovarian and in the assay with UACC-62 melanoma was more than 100 µM in each case.
Consider `COC(=O)c1ccc(/C=C2\Oc3ccccc3C2=O)cc1`, for which the TGI was 54.4 µM in the assay on HL-60(TB) leukemia; more than 100 µM in the assay with HCC-2998 colon; more than 100 µM in the assay on A549 NSCLC; more than 100 µM with IGROV1 ovarian; more than 100 µM with MDA-MB-231 breast; more than 100 µM in the assay with SK-MEL-28 melanoma. Besides, the TGI with NCI/ADR-RES ovarian, with DU-145 prostate and with UACC-62 melanoma was more than 100 µM in each case.
Consider `CCCC(CCC(N)=O)(CCC(N)=O)[N+](=O)[O-]`, for which the TGI in the assay on HL-60(TB) leukemia, in the assay with A549 NSCLC, in the assay on IGROV1 ovarian, in the assay with MDA-MB-231 breast, in the assay on SK-MEL-2 melanoma and in the assay with NCI/ADR-RES ovarian was more than 100 µM in each case. The TGI in the assay on DU-145 prostate, in the assay on OVCAR-5 ovarian and in the assay with UACC-62 melanoma was more than 100 µM each time.
Take `CCOC(=O)C1=C(O)C2C3CC4C2C(O)=C(C(=O)OCC)C2C1C3C42` (centres undefined): the TGI with HL-60(TB) leukemia, in the assay with A549 NSCLC, in the assay with IGROV1 ovarian, in the assay with MDA-MB-231 breast, with SK-MEL-2 melanoma and in the assay with SK-MEL-28 melanoma was more than 100 µM in each case. In addition, the concentration for total growth inhibition (TGI) in the assay on NCI/ADR-RES ovarian was 35.2 µM; in the assay with DU-145 prostate, more than 100 µM; in the assay on OVCAR-5 ovarian, more than 100 µM; in the assay on UACC-62 melanoma it was more than 100 µM.
Turning to `O=C(OC1C2OC(=O)c3cc(O)c(O)c(O)c3Oc3cc4c(c(O)c3O)-c3c(cc(O)c(O)c3O)C(=O)OCC3OC(O)C(OC(=O)c5cc(O)c(O)c(O)c5Oc5cc6c(c(O)c5O)-c5c(cc(O)c(O)c5O)C(=O)OC1C(COC6=O)OC2O)C(OC(=O)c1cc(O)c(O)c(O)c1)C3OC4=O)c1cc(O)c(O)c(O)c1` (centres undefined), the TGI is 44.4 µM with HL-60(TB) leukemia; 39.7 µM in the assay on A549 NSCLC; more than 100 µM in the assay on IGROV1 ovarian; 68.4 µM with MDA-MB-231 breast; more than 100 µM in the assay with SK-MEL-28 melanoma; more than 100 µM in the assay with NCI/ADR-RES ovarian. The values for the TGI with DU-145 prostate, with OVCAR-5 ovarian and with UACC-62 melanoma were more than 100 µM, more than 100 µM and 68.5 µM, respectively.
As for `O=CNNC(=O)Nc1cccc2ccccc12`, the TGI in the assay with HL-60(TB) leukemia, in the assay with HCC-2998 colon, in the assay on A549 NSCLC, in the assay with IGROV1 ovarian, with MDA-MB-231 breast and in the assay with SK-MEL-28 melanoma was more than 100 µM in each case. Further, the TGI in the assay with NCI/ADR-RES ovarian, with DU-145 prostate, in the assay with OVCAR-5 ovarian and in the assay on UACC-62 melanoma was more than 100 µM in each case.
For the molecule `Cc1ccc(NC=O)c(-c2c(N)[nH]c(=S)[nH]c2=O)c1`, the TGI in the assay with HL-60(TB) leukemia, in the assay on A549 NSCLC, in the assay with IGROV1 ovarian, in the assay on MDA-MB-231 breast, in the assay on SK-MEL-2 melanoma and in the assay on NCI/ADR-RES ovarian was more than 100 µM throughout. The TGI in the assay on DU-145 prostate, with OVCAR-5 ovarian and in the assay with UACC-62 melanoma was more than 100 µM throughout.
`O=C1/C(=C\c2cccc(Oc3ccccc3)c2)SC(c2ccccc2)N1c1ccccc1` (centres undefined): the TGI with HL-60(TB) leukemia, in the assay with HCC-2998 colon, in the assay on A549 NSCLC, in the assay on MDA-MB-231 breast, in the assay with SK-MEL-2 melanoma and with SK-MEL-28 melanoma was more than 100 µM throughout. Moreover, the TGI with NCI/ADR-RES ovarian, in the assay with DU-145 prostate, in the assay with OVCAR-5 ovarian and with UACC-62 melanoma was more than 100 µM in each case.
For `CN1CN(c2ccccc2)C2(CCN(CC(C)(c3ccc(F)cc3)C3OCCCO3)CC2)C1=O` (centres undefined), the TGI with HL-60(TB) leukemia turned out to be 33.7 µM; with A549 NSCLC, 61.9 µM; in the assay on IGROV1 ovarian, 38.9 µM; in the assay on MDA-MB-231 breast, 60.8 µM; in the assay on SK-MEL-28 melanoma it was 34.6 µM; in the assay on NCI/ADR-RES ovarian, 26.9 µM. Further, the TGI with DU-145 prostate is more than 100 µM; in the assay on OVCAR-5 ovarian, 25.7 µM; with UACC-62 melanoma it was 34.6 µM.

As usually defined, the TGI is the concentration at which net growth stops. Lower therefore signals more potent growth arrest. For orientation: GI50 means the concentration that inhibits growth by half.
